# Key:
# Panc1 cells [1] = experiment: Cell viability assay (CellTiter Glo), Panc1; assay type: cell-based; settings: Panc1 versus A549
# Protocol: (§1) Cell viability assay was performed to assess the potency of the ferroptosis inducer compounds in various cancer cell lines with K-Ras mutations. […] A series of 9 different concentrations of compound stocks (500×) were created by 3-fold serial dilution in DMSO. […] After 96 hours of incubation, 50 μL of CellTiter Glo reagent (Promega) was added to each well and luminescence was measured after 10 minutes using EnVision (PerkinElmer). […] IC50, relative IC50, or % of top inhibition was calculated. Next, RSL3, ML210, Erastin, and Auranofin were tested on additional K-RAS mutant pancreatic cell lines (Panc1, Panc6.03, Panc2.13, PSN-1, and Capan-1) in Table 1.
# KP-4 cells [2] = experiment: Effect of ferroptosis or apoptosis inhibitor on RSL3- or Erastin-induced cell death, KP-4; settings: Homo sapiens, KP-4, read-out: reduction of cell viability compared to DMSO
# Protocol: (§2) Cell viability assay was performed to assess the potency of the ferroptosis inducer compounds in various cancer cell lines with K-Ras mutations. Cells at a density of 1,000-10,000 cells/well were seeded in 96-well plates and incubated at 37° C. overnight. A series of 9 different concentrations of compound stocks (500×) were created by 3-fold serial dilution in DMSO. These compounds were further diluted in culture media and then added to cells so that the final DMSO concentration was equal to 0.25% or less. After 96 hours of incubation, 50 μL of CellTiter Glo reagent (Promega) was added to each well and luminescence was measured after 10 minutes using EnVision (PerkinElmer). K101A (a PKC activator) was used as the reference compound titrated from top concentration of 30 μM. All compounds were tested initially from 30 μM as the top concentration in duplicates (range of 4.6 nM-30 μM). […] Data was analyzed using XL-fit software (ID Business Solutions Ltd.). IC50, relative IC50, or % of top inhibition was calculated.
# Ferroptosis inhibitors include: Ferrostatin-1 and Liproxstatin-1, inhibitors of ROS accumulation; Deferoxamine, an iron chelator; and PD146176, a 15-lipoxygenase inhibitor (see, e.g., Hofman et al., 2016, J Med Chem. March 10; 59(5):2041-53; Yang et al., 2016 Cell 26(3):165-176). The apoptosis inhibitor chosen was ZVAD (see, e.g. Wu et al., 2011, Cell Death and Differentiation 18:26-37). Ferroptosis inhibitors and ZVAD were first titrated as a single agent as shown in Example 1.
# A549 cells [3] = experiment: Combination proliferation assay with PKC activator, A549; assay type: cell-based; settings: inducer at concentration with minimal or no effect alone
# Protocol: as §2
# (§3) Therefore, whether PKC activators synergize or antagonize with ferroptosis inducers can be tested empirically.
# Capan-1 cells = experiment: Combination proliferation assay with PKC activator, Capan-1; assay type: cell-based
# Protocol: as §2, §3
# Panc2.13 cells = experiment: Combination proliferation assay with PKC activator, Panc2.13; assay type: cell-based
# Protocol: as §2, §3
# PSN-1 cells [4] = experiment: Cell viability assay (CellTiter Glo), PSN-1; assay type: cell-based; settings: PSN-1 versus A549
# Protocol: as §1
# Panc1 cells [5] = experiment: Combination proliferation assay with PKC activator, Panc1; assay type: cell-based; settings: inducer up to 1 μM
# Protocol: as §2, §3
# PSN-1 cells [6] = experiment: Combination proliferation assay with PKC activator, PSN-1; assay type: cell-based
# Protocol: as §2, §3
# [7] = test system: B cell lymphoma cell lines Mino and Namalwa; experiment: Cell viability assay, B cell lymphoma cell lines compared with A549; assay type: cell-based; settings: Mino and Namalwa versus A549
# Protocol: Cell viability assay was performed to assess the potency of the ferroptosis inducer compounds in various cancer cell lines with K-Ras mutations. […] A series of 9 different concentrations of compound stocks (500×) were created by 3-fold serial dilution in DMSO. […] After 96 hours of incubation, 50 μL of CellTiter Glo reagent (Promega) was added to each well and luminescence was measured after 10 minutes using EnVision (PerkinElmer). […] […] IC50, relative IC50, or % of top inhibition was calculated.
# A549 cells [8] = experiment: Effect of ferroptosis or apoptosis inhibitor on RSL3- or Erastin-induced cell death, A549; settings: Homo sapiens, A549, read-out: reduction of cell viability compared to DMSO
# Protocol: as §2
# Ferroptosis inhibitors include: Ferrostatin-1 and Liproxstatin-1, inhibitors of ROS accumulation; Deferoxamine, an iron chelator; and PD146176, a 15-lipoxygenase inhibitor (see, e.g., Hofman et al., 2016, J Med Chem. March 10; 59(5):2041-53; Yang et al., 2016 Cell 26(3):165-176). […]
# KP-4 cells [9] = experiment: Combination proliferation assay with PKC activator, KP-4; assay type: cell-based
# Protocol: as §2, §3
structure (smiles),measurement,setting,value
CCOc1ccccc1-n1c(C(C)N2CCN(C(=O)COc3ccc(Cl)cc3)CC2)nc2ccccc2c1=O (stereo not drawn) [Erastin],selectivity for induced cell death in comparison to A549,Panc1 cells [1],~2 fold
same,cytotoxicity at 1 µM,KP-4 cells [2],> 90%
same,synergy with K101A or K102 to block proliferation,A549 cells [3],synergized strongly
same,synergy with K101A or K102 to block proliferation,Capan-1 cells,did not synergize
same,effect on the potency of K101A or K102,Panc2.13 cells,only increased the potency
same,synergy with K101A or K102 to block proliferation,Panc2.13 cells,synergized
same,selectivity/sensitivity for induced cell death in comparison to A549,PSN-1 cells [4],~2 fold
same,synergy with K101A or K102 to block proliferation,Panc1 cells [5],No synergistic effects
same,synergy with K101A (PKC activators) to block proliferation,PSN-1 cells [6],synergized
same,sensitivity to induced cell death in comparison to A549,[7],not more sensitive
same,cytotoxicity at 10 µM,A549 cells [8],50 to 60%
same,synergy when combined with K101A or K102,KP-4 cells [9],only additive effects
